Test results as given in publication PMC8850458, “The AUTOTAC chemical biology platform for targeted protein degradation via the autophagy-lysosome system” (Nature Communications, 2022).
Values joined by “and” are separate entries in the source; they are usually repeats but may differ in a detail not shown here. Equal values may be shown once. Values belong to the compound of their own block, whether it stands above or below them.

Tests used:
tauP301L = tauP301L (Homo sapiens, UniProt P10636, P618L); test: WB degradation of tauP301L in SH-SY5Y-tauP301L cells; format: cell-based; details: SH-SY5Y-tauP301L cells
tauP301L, sequence (P10636 1-441 isoform P10636-8 P301L): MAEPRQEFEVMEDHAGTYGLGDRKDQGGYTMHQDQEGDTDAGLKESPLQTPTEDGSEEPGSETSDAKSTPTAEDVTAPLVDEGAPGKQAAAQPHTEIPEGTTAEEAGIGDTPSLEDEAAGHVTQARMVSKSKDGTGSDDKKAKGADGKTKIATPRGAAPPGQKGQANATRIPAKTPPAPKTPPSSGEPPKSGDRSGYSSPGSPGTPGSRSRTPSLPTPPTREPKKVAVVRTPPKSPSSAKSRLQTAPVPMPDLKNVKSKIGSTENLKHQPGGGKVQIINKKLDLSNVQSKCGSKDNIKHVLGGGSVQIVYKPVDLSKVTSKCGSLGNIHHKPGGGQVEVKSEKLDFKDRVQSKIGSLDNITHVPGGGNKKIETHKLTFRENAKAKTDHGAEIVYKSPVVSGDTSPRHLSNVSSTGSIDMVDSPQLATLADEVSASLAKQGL
Experimental: (§1) Adherent cells were washed with phosphate-buffered saline (PBS) and cell pellets were lysed in SDS-based sample buffer (277.8 mM Tris-HCI, pH 6.8, 4.4% LDS, 44.4% (v/v) glycerol) containing beta-mercaptoethanol. Alternatively, cell pellets or protein supernatants were lysed in 5X Laemmli sample buffer. Whole-cell lysates were separated using SDS-PAGE, and transferred onto polyvinyllidene difluoride membranes at 100 V for 2 h at 4 °C. The membrane was incubated with a blocking solution consisting 4% skim milk in PBS solution for 30 min at room temperature and incubated with primary antibodies overnight, followed by incubation with host-specific HRP-conjugated secondary antibodies (1:10000 dilution). For signal detection, the membrane was developed with a mixture of ECL solution (Thermo Fisher Scientific) using X-ray films. Densitometry of developed bands was measured and analyzed with ImageJ (NIH, Bethesda).

Ub^+ and p62^+ puncta = test: ICC of Ub (FK2) and p62 puncta in HeLa cells; format: cell-based; details: 1 μM 24 h, autophagy inhibition (HCQ)
Experimental: Fig. 4 Targeted autophagic delivery and degradation of misfolded protein cargoes using AUTOTACs with aggregate-binding warhead. a A model illustrating the mode of action of aggregate-targeting AUTOTAC. b Chemical structures of PBA-1105, PBA-1106, Anle138b-F105 and PBA-1105b. c In vitro p62 oligomerization assay in HEK293T cells incubated with the indicated compounds in (b). d WB in HEK293T cells treated with MG132 (1 μM, 24 h), HCQ (10 μM, 24 h), PBA-1105, YTK-1105, and PBA (1 μM, 24 h). e Identical to (d), but with Anle-F105. f ICC of HeLa cells treated with HCQ (10 μM, 24 h), MG132 (2 μM, 18 h) or both in the presence of PBA-1106, YOK-1106 or PBA (1 μM, 24 h). Scale bar, 10 μm. g Quantification of (f) (n = 3, 50 cells). h ICC of HeLa cells treated with Anle138b-F105 (1 μM, 24 h). Scale bar, 10 μm. i Quantification of (h) (n = 3, 50 cells). When indicated, n = 3 biologically independent experiments each counting 50 cells. Data are presented as mean values ± SD where relevant. P-values (from a two-sided unpaired t test): ***P < 7.66E−05. Source data are provided with this paper.
(§2) Cells were cultured on coverslips coated with poly-L-lysine (Sigma) to observe cellular localization of proteins. Using 4% paraformaldehyde in PBS (pH 7.4), the cells were fixed for 15 min at room temperature and washed three times for 5 min with PBS. After fixing, the cells were permeabilized with 0.5% Triton X-100 in PBS solution for 15 min and washed three times with PBS for 5 min. The cells were blocked containing 2% BSA in PBS solution for 1 h at room temperature. Subsequently, the cells were incubated with primary antibody diluted in 2% BSA/PBS solution overnight at 4 °C, followed by washing the cells three times for 10 min with PBS and incubated with Alexa Fluor-conjugated secondary antibody diluted in 2% BSA/PBS for 30 min at room temperature. Using a DAPI-containing mounting medium (Vector Laboratories), the coverslips were mounted on glass slides. Confocal images were taken by laser scanning confocal microscope 510 Meta (Zeiss) and analyzed by Zeiss LSM Image Browser (ver. 4.2.0.121). […] Quantification results are shown as mean ± S.D. or S.E.M. of three independent experiments

p62 [1] = target: T1, p62 (Homo sapiens, UniProt Q13501); test: In vitro p62 oligomerization assay; format: biochemical; details: HEK293T lysate
T1 construct: expressed in transfected cells; host or cells: HEK293T, transient; whole lysate used
T1 sequence (Q13501 whole entry): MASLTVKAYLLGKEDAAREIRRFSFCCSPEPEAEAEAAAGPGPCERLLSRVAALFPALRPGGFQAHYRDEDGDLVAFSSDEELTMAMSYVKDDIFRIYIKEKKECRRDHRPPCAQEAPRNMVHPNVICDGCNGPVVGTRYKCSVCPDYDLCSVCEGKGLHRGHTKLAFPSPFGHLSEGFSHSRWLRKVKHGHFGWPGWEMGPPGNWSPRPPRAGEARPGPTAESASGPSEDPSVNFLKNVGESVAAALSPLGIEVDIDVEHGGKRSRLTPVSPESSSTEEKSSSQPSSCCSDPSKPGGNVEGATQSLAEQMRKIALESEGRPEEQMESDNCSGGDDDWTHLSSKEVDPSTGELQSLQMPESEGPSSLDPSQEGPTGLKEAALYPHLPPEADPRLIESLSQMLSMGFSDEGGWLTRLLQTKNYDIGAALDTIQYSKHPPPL
Experimental: HEK293T cells were transiently transfected with a plasmid encoding p62-myc/his fusion proteins. Cells were resuspended in lysis buffer [50 mM HEPES (pH 7.4), 0.15 M KCl, 0.1% Nonidet P-40), 10% glycerol, containing a mixture of protease inhibitors and phosphatase inhibitor (Abcam)]. To lyse the cells, 10 cycles of freezing and thawing was done, followed by centrifugation at 13,000 × g for 20 min at 4 °C. Using a BCA assay, the protein concentration of the supernatant was measured. A total of 1 μg of protein was incubated with 1 mM of p62-ZZ ligands in the presence of 100 μM bestatin (Enzo) at room temperature for 2 h. After incubation, each sample was mixed with non-reducing 4X LDS sample buffer, heated at 95 °C for 10 min, and resolved using 4–20% gradient SDS-PAGE (Bio-Rad). To monitor the conversion of p62 monomers into oligomers or aggregates, IB assay was performed using anti-myc antibody.

mutant desminL385P = target: T2, mutant desminL385P (Homo sapiens, UniProt P17661, L385P); test: WB degradation of mutant desmin in HeLa cells; format: cell-based; details: exogenously expressed
T2 construct: expressed in transfected cells; host or cells: HeLa, transient
T2 sequence (P17661 whole entry L385P): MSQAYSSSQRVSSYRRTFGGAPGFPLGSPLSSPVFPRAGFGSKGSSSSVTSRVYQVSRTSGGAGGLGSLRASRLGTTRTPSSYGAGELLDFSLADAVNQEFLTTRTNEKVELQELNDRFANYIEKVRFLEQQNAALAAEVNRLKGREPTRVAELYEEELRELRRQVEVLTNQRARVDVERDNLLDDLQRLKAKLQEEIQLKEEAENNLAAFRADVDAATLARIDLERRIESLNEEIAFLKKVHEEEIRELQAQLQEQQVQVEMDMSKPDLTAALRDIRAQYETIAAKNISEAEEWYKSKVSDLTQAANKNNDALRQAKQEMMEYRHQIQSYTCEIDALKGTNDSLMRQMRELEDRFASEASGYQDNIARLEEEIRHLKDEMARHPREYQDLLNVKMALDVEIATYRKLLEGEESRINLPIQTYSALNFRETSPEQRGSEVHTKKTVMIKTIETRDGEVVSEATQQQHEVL
Experimental: as §1
(§3) Supplementary Fig. 5. AUTOTACs selectively target pathological aggregation-prone proteins for autophagic degradation. (a) WB in HEK293T cells treated with PBA-1105 (1 μM) and MG132 (1 μM, 24 h) at the indicated time points. (b) ICC of HeLa cells treated with the indicated compounds (1 μM, 24 h). Scale bar, 10 μm. (c) WB in HEK293T cells treated with PBA-1105 (500 nM, 24 h) and MG132 (1 μM, 24 h) under siRNA-mediated knockdown of p62 or ATG7 (20 nM, 48 h). (d) ICC in HeLa cells transiently expressing WIPI2-GFP and treated with Anle138b-F105 (1 μM, 24 h). Scale bar, 10 μm. (e) ICC in HeLa cells treated with […]
(§4) nM, 24 h). (g, h) WB in HeLa cells transiently expressing wild type or mutant (L385P) desmin-flag with LacZ-myc and treated with PBA-1105, PBA-1105b or Anle138b-F105 at the […]

wild-type desmin = target: T3, wild-type desmin (Homo sapiens, UniProt P17661); test: WB degradation of wild-type desmin in HeLa cells; format: cell-based; details: exogenously expressed
T3 construct: expressed in transfected cells; host or cells: HeLa, transient
T3 sequence (P17661 whole entry): as the sequence (P17661 whole entry L385P) above, with P385L counted along it
Experimental: as §1, §3, §4

p62 [2] = target: T1, p62; test: In vitro pulldown assay with biotinylated p62 ligands; format: binding; details: biotinylated ligand, HEK293T extracts
Experimental: A set of synthetic 12-mer peptides corresponding to the N-terminal sequences of the V-BiP (V[19]-[…]-biotin) and V-RGS4 (V^2-[…]-biotin) was C-terminally biotin-conjugated. Alternatively, biotinylated versions of YOK-1304, YT-8-8, YTK-1105, YOK-2204, and PBA were synthesized. To cross-link the above peptides with resin beads, biotin-conjugated peptides, and small molecule were mixed with high-capacity streptavidin agarose resin (Thermo Fisher Scientific) at a ratio of 0.5 mg of peptide per 1 mL of settled resin and incubated on a rotator at 4 °C overnight. After washing five times with PBS, the peptide/small molecule-bead conjugates were diluted with PBS at a 1:1 ratio. To prepare protein extracts, cells were collected by centrifugation and lysed by freezing and thawing at least 10 times in hypotonic buffer [10 mM KCl, 1.5 mM MgCl2, and 10 mM HEPES (pH 7.9)] with a protease inhibitor mix (Sigma). After centrifugation at 15,000 rpm 4 °C for 15 min, proteins were quantified using a BCA protein assay kit (Thermo Fisher Scientific). Total protein (200 μg) diluted in 300 μL of binding buffer [0.05% Tween-20, 10% glycerol, 0.2 M KCl, and 20 mM HEPES (pH 7.9)] were mixed with 50 μL of peptide/small molecule-bead resin and incubated at 4 °C for 2 h on a rotator. The protein-bound beads were collected by centrifugation at 2400 × g for 3 min and washed five times with binding buffer. The beads were resuspended in 25 μL of SDS sample buffer, heated at 95 °C for 5 min, and subjected to SDS/PAGE and immunoblotting.

[3] = system: p62-positive and WIPI2-positive punctate structures; test: ICC of WIPI2-p62 co-localization in HeLa cells; format: cell-based
Experimental: as §2
Supplementary Fig. 2. Characterization of p62-ZZ ligands (a, c, e) 3-D modeling of p62 […]
μM, 6 h). (m) Quantification of l for co-localization (n=3, 50 cells). Scale bar, 10 µm. (n) […]

[4] = system: autophagic turnover of p62 and LC3; test: Autophagic flux assay in HeLa cells with or without HCQ; format: cell-based; details: 2.5 μM, 24 h, with or without HCQ 10 µM 24 h
Experimental: Fig. 1 Nt-Arg-mimicking p62-ZZ ligands activate p62-dependent selective macroautophagy. a A model illustrating the mode of action of autophagy-targeting ligands. b Chemical structures of autophagy-targeting ligands. c In vitro pulldown assay in HEK293T cells of the 12-mer V-BiP peptide or autophagy-targeting ligands. d In vitro p62 oligomerization assay in HEK293T cells incubated with the p62-ZZ ligands in (b). e ICC of HeLa cells treated with p62-ZZ ligands in (b) (2.5 μM, 24 h). Scale bar, 10 μm. f, g Quantification of (e) for puncta formation and co-localization, respectively (n = 3 biologically independent experiments each counting 50 cells). h A schematic/formulae for autophagy flux index. i Autophagic flux assay in HeLa cells treated with YOK-1304 or YTK-105 (2.5 μM, 24 h) in the presence or absence of HCQ (10 µM, 24 h). Data are presented as mean values ± SD where relevant. P-values (from a two-sided unpaired t test): ***P < 0.000956 (for p62 punctate formation), ***P < 0.000539 (for LC3 punctate formation), ***P < 0.000925 (for p62-LC3 co-localization). Source data are provided with this paper. TEXT PRINTED IN THE PICTURE: (i) YOK 1304: Normalized p62 A.F. index: 2.8; Normalized LC3 II/I A.F. index: 4.2 | (i) YTK 105: Normalized p62 A.F. index: 4.6; Normalized LC3 II/I A.F. index: 11.2
as §1

[5] = system: p62 and LC3 punctate structures; test: ICC of p62 and LC3 puncta formation and co-localization in HeLa cells; format: cell-based; details: 2.5 μM, 24 h
Experimental: as §2

[6] = target: T4, methionine aminopeptidase 2 (MetAP2) (Homo sapiens, UniProt P50579); test: Western blot degradation of MetAP2; format: cell-based; details: 293T, 24 h
T4 construct: Targeted autophagic degradation of endogenous oncoproteins by AUTOTAC; endogenous in cells; host or cells: HEK293 / HEK293T, U87-MG
T4 sequence (P50579 whole entry): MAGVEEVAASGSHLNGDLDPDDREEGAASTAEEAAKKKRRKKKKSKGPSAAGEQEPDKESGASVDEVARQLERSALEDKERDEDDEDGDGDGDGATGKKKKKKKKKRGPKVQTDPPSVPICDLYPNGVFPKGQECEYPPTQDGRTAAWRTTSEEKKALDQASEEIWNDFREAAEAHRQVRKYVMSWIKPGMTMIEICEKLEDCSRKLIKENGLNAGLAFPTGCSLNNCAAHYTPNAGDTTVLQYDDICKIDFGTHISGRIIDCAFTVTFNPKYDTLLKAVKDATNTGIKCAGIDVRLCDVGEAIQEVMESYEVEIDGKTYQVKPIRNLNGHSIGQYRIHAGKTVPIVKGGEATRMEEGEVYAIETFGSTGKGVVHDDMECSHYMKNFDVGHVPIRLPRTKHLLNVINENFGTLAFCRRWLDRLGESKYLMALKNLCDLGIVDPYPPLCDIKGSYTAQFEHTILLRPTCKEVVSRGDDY
Experimental: as §1

[7] = system: U87-MG glioblastoma cells; test: Wound healing assay in U87-MG cells; format: cell-based; design: wound area, single experiment / wound area, Average: unit not given here; details: Fig. S4j
Experimental: To analyze cell migration in two dimensions, U-87 MG or ACHN cells were plated to a monolayer. Cells were scratched with a sterile 10 μl pipette tip and the debris was removed using medium. Cells were treated with compounds and incubated for different time to monitor cell behavior. Photographs were obtained using a microscope at different time point.

[8] = HeLa expressing WIPI2-GFP, 2.5 μM, 6 h
[9] = HeLa, endogenous WIPI2, 2.5 μM, 24 h

- DC50 (tauP301L): 1 to 10 nM
- Dmax,24 hr of tauP301L degradation (tauP301L): 100 nM
- p62 self-oligomerization (p62 [1]): triggered its self-oligomerization
SMILES: O=C(CCCc1ccccc1)NCCOCCOCCOCCNC[C@@H](O)COc1ccc(OCc2ccccc2)c(OCc2ccccc2)c1 [PBA-1106]
- p62 puncta structures (per cell) (Ub^+ and p62^+ puncta): 14 ± 4.2

- degradation of mutant desminL385P (mutant desminL385P): induced the degradation
- degradation of wild-type desmin (wild-type desmin): not wild-type desmin
SMILES: O=C(CCCc1ccccc1)NCCOCCOCCOCCOCCOCCOCCOCCNCc1ccc(OCc2ccccc2)c(OCc2ccccc2)c1 [PBA-1105b]
- degradation of tauP301L (tauP301L): at a similar efficiency as the original PBA-1105

SMILES: OCCNCc1cccc(OCc2ccccc2)c1 [YTK-105]
- binding of p62 in pulldown (p62 [2]): bound
- WIPI2-GFP-p62 colocalization, AVG of cells of 50 [3, 8]: 25
- WIPI2-GFP-p62 colocalization, percentage AVG [3, 8]: 50%
- WIPI2-GFP-p62 colocalization, cells of 50 cells counted ([3]; HeLa expressing WIPI2-GFP, 2.5 μM, 6 h, single experiments): 31 and 18 and 26
- WIPI2-p62 colocalization, AVG of cells of 50 [3, 9]: 40.6667
- WIPI2-p62 colocalization, percentage AVG [3, 9]: 81.3333%
- WIPI2-p62 colocalization, cells of 50 cells counted ([3]; HeLa, endogenous WIPI2, 2.5 μM, 24 h, single experiments): 48 and 33 and 41
- Normalized LC3 II/I A.F. index [4]: 11.2
- Normalized p62 A.F. index [4]: 4.6
- LC3 puncta formation, AVG of cells of 50 [5]: 42.3333
- LC3 puncta formation, percentage AVG [5]: 84.6667%
- p62-LC3 colocalization, AVG of cells of 50 [5]: 45
- p62-LC3 colocalization, percentage AVG [5]: 90%
- p62 puncta formation, AVG of cells of 50 [5]: 43.6667
- p62 puncta formation, percentage AVG [5]: 87.3333%
- LC3 puncta formation, cells of 50 cells counted ([5]; single experiments): 38 and 42 and 47
- p62-LC3 colocalization, cells of 50 cells counted ([5]; single experiments): 46 and 43
- p62 puncta formation, cells of 50 cells counted ([5]; single experiments): 43 and 41 and 47
- MetAP2 normalized to control, AVG % ([6]; 2.5uM): 101.594%
- MetAP2 normalized to control, AVG % ([6]; 10uM): 142.103%
- wound area, single experiment ([7]; 0h): 1132236 and 1199923 and 1182736
- wound area, Average % ([7]; 0h (reference = 100)): 100%
- wound area, Average ([7]; 0h, con 1278325): 1171632
- wound area, single experiment ([7]; 4h): 859025 and 791115 and 860952
- wound area, Average ([7]; 4h, con 815372): 837031
- wound area, Average % ([7]; 4h, relative to 0h, con 63.7844): 71.4415%
- wound area, single experiment ([7]; 12h): 450234 and 520420 and 504520
- wound area, Average ([7]; 12h, con 627015): 491725
- wound area, Average % ([7]; 12h, relative to 0h, con 49.0497): 41.9692%
- wound area, single experiment ([7]; 24h): 288632 and 435340 and 335340
- wound area, Average ([7]; 24h, con 144265): 353104
- wound area, Average % ([7]; 24h, relative to 0h, con 11.2855): 30.1378%
